These results are taken from US9868719B2, “Compounds with pesticidal activity” (BAYER CROPSCIENCE AKTIENGESELLSCHAFT, priority 2013, dated 2018).

Data set [1] relates to Nippostrongylus brasiliensis. Description: Nippostrongylus brasiliensis-Test (NIPOBR), in vitro efficacy, acetylcholine esterase readout. The note with it: 10 μg/ml, read-out: activity (reduction of AChe compared to negative control). The procedure: Nippostrongylus brasiliensis-Test (NIPOBR) (In Vitro Efficacy Test)
Adult Nippostrongylus brasiliensis were washed with saline buffer containing 100 U/ml penicillin, 0.1 mg/ml streptomycin and 2.5 μg/ml amphotericin B. Test compounds were dissolved in DMSO, and worms were incubated in medium in a final concentration of 10 μg/ml. An aliquot of the medium was used to determine the acetylcholine esterase activity in comparison to a negative control. The principle of measuring acetylcholine esterase as readout for anthelmintic activity was described in Rapson et al (1986) and Rapson et al (1987).

Another data set has as its system Haemonchus contortus. As to the kind of experiment: Haemonchus contortus-Test (HAEMCO), larval mortality. The note with it: 120 h, read-out: activity (larval mortality). The procedure: Haemonchus contortus-Test (HAEMCO)
(§1) Solvent: dimethyl sulfoxide
(§2) To produce a suitable preparation of active compound, 10 mg of active compound are dissolved in 0.5 ml solvent, and the concentrate is diluted with “Ringer's solution” to the desired concentration.
Approximately 40 larvae of the red stomach worm (Haemonchus contortus) are transferred into a test tube containing compound solution.
After 5 days percentage of larval mortality are recorded, 100% efficacy means all larvae are killed, 0% efficacy means no larvae are killed.

In another data set the test system is Meloidogyne incognita. Description: Meloidogyne incognita-Test, gall formation on salad seedlings. The data set is classed as in vivo. The note with it: 336 h, read-out: nematicidal activity (on the basis of gall formation). The procedure: Meloidogyne incognita-Test
Solvent: 125.0 parts by weight of acetone
To produce a suitable preparation of active compound, 1 part by weight of active compound is mixed with the stated amount of solvent, and the concentrate is diluted with water to the desired concentration.
Vessels are filled with sand, a solution of the active ingredient, a suspension containing eggs and larvae of the southern root-knot nematode (Meloidogyne incognita) and salad seeds. The salad seeds germinate and the seedlings grow. Galls develop in the roots.
After 14 days the nematicidal activity is determined on the basis of the percentage of gall formation. 100% means no galls were found and 0% means the number of galls found on the roots of the treated plants was equal to that in untreated control plants.

The subject of the next data set is Cooperia curticei. Description: microbe, parasite or virus in culture. The note with it: 120 h, read-out: activity (larval mortality). As for the experimental part: Cooperia curticei-Test (COOPCU)
as §1, §2
Approximately 40 nematode larvae (Cooperia curticei) are transferred into a test tube containing the compound solution.
After 5 days percentage of larval mortality is recorded, 100% efficacy means all larvae are killed; 0% efficacy means no larvae are killed.

Structures are written as SMILES.

For `O=C(NCC(F)(F)c1ncc(-c2cncc(Cl)c2)cc1Cl)c1ccccc1C(F)(F)F` [Example 15], the inhibition at 10 µg/mL in data set [1] was ≥ 60%. Further, the mortality at 20 ppm in the data set with Haemonchus contortus and in the data set with Cooperia curticei was 100% in each case. For the same compound, the chromatographic logP in “physchem” amounted to 3.17. The pest or weed control at 20 ppm in the data set on Meloidogyne incognita was determined as 90%.

Turning to `O=C(NCC(F)(F)c1ncc(-c2ccc(F)nc2)cc1Cl)c1ccccc1C(F)(F)F` [Example 16], in data set [1], the inhibition at 10 µg/mL is ≥ 60%. Besides, the mortality at 20 ppm with Haemonchus contortus and with Cooperia curticei was 100% throughout. In the data set “physchem”, the chromatographic logP was found to be 3.02. In the data set with Meloidogyne incognita, the pest or weed control at 20 ppm turned out to be 1%.

For the compound `O=C(NCC(F)(F)c1ncc(-c2cc(Cl)nc(Cl)c2)cc1Cl)c1ccccc1C(F)(F)F` [Example 25], in data set [1], the inhibition at 10 µg/mL was ≥ 60%. For the same compound, the mortality at 20 ppm in the data set on Haemonchus contortus and in the data set on Cooperia curticei was 100% in each case. In addition, the chromatographic logP in “physchem” is 3.84. In the data set with Meloidogyne incognita, the pest or weed control at 20 ppm was 1%.
